In the supplement of paper PMC10307832:

Experiments:
Test in all cases: relative viability (nuclei count vs DMSO), 5 days (fraction); higher = more cells survive
Dinaciclib = compound: CCc1cnn2c(NCc3ccc[n+]([O-])c3)cc(N3CCCC[C@H]3CCO)nc12 [Dinaciclib]
Procedure, shortened: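 On vehicle-anchored 1536-well plates, lung cancer cell lines held overnight at 37 °C were pinned with five library-drug doses (not always all listed) spaced by √10. With no medium change over 5 days, they were then fixed, permeabilised and Hoechst-stained in one step and imaged at 4×. MetaXpress counted nuclei, and viability is the median across plates of treated-well over vehicle-well nuclei. Acceptance needed control CV below 25% and at least one doubling.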

Dinaciclib + Bortezomib = compound: CCc1cnn2c(NCc3ccc[n+]([O-])c3)cc(N3CCCC[C@H]3CCO)nc12 [Dinaciclib] + CC(C)C[C@H](NC(=O)[C@H](Cc1ccccc1)NC(=O)c1cnccn1)B(O)O [Bortezomib] (partner 0.002 µM)
Procedure, shortened: (§1)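 Lung cancer cell lines were seeded in 1536-well plates and dosed by pin tool the next day, with either a single drug or a fixed anchor-drug dose combined with five library-drug doses (not always all listed) spaced in √10 steps. Five days later, one step fixed the cells and stained their nuclei (final 0.05% Triton X-100, 1% formaldehyde, 1 ug/ml Hoechst), and nuclei were counted on 4× images. Relative viability is the nuclei count in treated wells divided by the count in vehicle wells, and each value is the median of duplicate plates.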

Dinaciclib + Navitoclax = compound: CCc1cnn2c(NCc3ccc[n+]([O-])c3)cc(N3CCCC[C@H]3CCO)nc12 [Dinaciclib] + CC1(C)CCC(c2ccc(Cl)cc2)=C(CN2CCN(c3ccc(C(=O)NS(=O)(=O)c4ccc(N[C@H](CCN5CCOCC5)CSc5ccccc5)c(S(=O)(=O)C(F)(F)F)c4)cc3)CC2)C1 [Navitoclax] (partner 0.5 µM)
Procedure, shortened: as §1

Dinaciclib + Foretinib = compound: CCc1cnn2c(NCc3ccc[n+]([O-])c3)cc(N3CCCC[C@H]3CCO)nc12 [Dinaciclib] + COc1cc2c(Oc3ccc(NC(=O)C4(C(=O)Nc5ccc(F)cc5)CC4)cc3F)ccnc2cc1OCCCN1CCOCC1 [Foretinib] (partner 0.25 µM)
Procedure, shortened: as §1

Dinaciclib + Lapatinib = compound: CCc1cnn2c(NCc3ccc[n+]([O-])c3)cc(N3CCCC[C@H]3CCO)nc12 [Dinaciclib] + CS(=O)(=O)CCNCc1ccc(-c2ccc3ncnc(Nc4ccc(OCc5cccc(F)c5)c(Cl)c4)c3c2)o1 [Lapatinib] (partner 2 µM)
Procedure, shortened: as §1

Dinaciclib + Pictilisib = compound: CCc1cnn2c(NCc3ccc[n+]([O-])c3)cc(N3CCCC[C@H]3CCO)nc12 [Dinaciclib] + CS(=O)(=O)N1CCN(Cc2cc3nc(-c4cccc5[nH]ncc45)nc(N4CCOCC4)c3s2)CC1 [Pictilisib] (partner 1 µM)
Procedure, shortened: as §1

Dinaciclib + Crizotinib = compound: CCc1cnn2c(NCc3ccc[n+]([O-])c3)cc(N3CCCC[C@H]3CCO)nc12 [Dinaciclib] + C[C@@H](Oc1cc(-c2cnn(C3CCNCC3)c2)cnc1N)c1c(Cl)ccc(F)c1Cl [Crizotinib] (partner 1 µM)
Procedure, shortened: as §1

Dinaciclib + Linsitinib = compound: CCc1cnn2c(NCc3ccc[n+]([O-])c3)cc(N3CCCC[C@H]3CCO)nc12 [Dinaciclib] + C[C@]1(O)C[C@@H](c2nc(-c3ccc4ccc(-c5ccccc5)nc4c3)c3c(N)nccn32)C1 [Linsitinib] (partner 1 µM)
Procedure, shortened: as §1

Dinaciclib + Alpelisib = compound: CCc1cnn2c(NCc3ccc[n+]([O-])c3)cc(N3CCCC[C@H]3CCO)nc12 [Dinaciclib] + Cc1nc(NC(=O)N2CCC[C@H]2C(N)=O)sc1-c1ccnc(C(C)(C)C(F)(F)F)c1 [Alpelisib] (partner 2 µM)
Procedure, shortened: as §1

Dinaciclib + Olaparib = compound: CCc1cnn2c(NCc3ccc[n+]([O-])c3)cc(N3CCCC[C@H]3CCO)nc12 [Dinaciclib] + O=C(c1cc(Cc2n[nH]c(=O)c3ccccc23)ccc1F)N1CCN(C(=O)C2CC2)CC1 [Olaparib] (partner 8 µM)
Procedure, shortened: as §1

Row | Cell Line | relative viability (Dinaciclib; 0.009487 µM) | relative viability (Dinaciclib; 0.03 µM) | relative viability (Dinaciclib; 0.09487 µM) | relative viability (Dinaciclib; 0.3 µM) | relative viability (Dinaciclib + Bortezomib; first compound 0.009487 µM) | relative viability (Dinaciclib + Bortezomib; first compound 0.03 µM) | relative viability (Dinaciclib + Bortezomib; first compound 0.09487 µM) | relative viability (Dinaciclib + Bortezomib; first compound 0.3 µM) | relative viability (Dinaciclib + Navitoclax; first compound 0.009487 µM) | relative viability (Dinaciclib + Navitoclax; first compound 0.03 µM) | relative viability (Dinaciclib + Navitoclax; first compound 0.09487 µM) | relative viability (Dinaciclib + Navitoclax; first compound 0.3 µM) | relative viability (Dinaciclib + Foretinib; first compound 0.009487 µM) | relative viability (Dinaciclib + Foretinib; first compound 0.03 µM) | relative viability (Dinaciclib + Foretinib; first compound 0.09487 µM) | relative viability (Dinaciclib + Foretinib; first compound 0.3 µM) | relative viability (Dinaciclib + Lapatinib; first compound 0.009487 µM) | relative viability (Dinaciclib + Lapatinib; first compound 0.03 µM) | relative viability (Dinaciclib + Lapatinib; first compound 0.09487 µM) | relative viability (Dinaciclib + Lapatinib; first compound 0.3 µM) | relative viability (Dinaciclib + Pictilisib; first compound 0.009487 µM) | relative viability (Dinaciclib + Pictilisib; first compound 0.03 µM) | relative viability (Dinaciclib + Pictilisib; first compound 0.09487 µM) | relative viability (Dinaciclib + Pictilisib; first compound 0.3 µM) | relative viability (Dinaciclib + Crizotinib; first compound 0.009487 µM) | relative viability (Dinaciclib + Crizotinib; first compound 0.03 µM) | relative viability (Dinaciclib + Crizotinib; first compound 0.09487 µM) | relative viability (Dinaciclib + Crizotinib; first compound 0.3 µM) | relative viability (Dinaciclib + Linsitinib; first compound 0.009487 µM) | relative viability (Dinaciclib + Linsitinib; first compound 0.03 µM) | relative viability (Dinaciclib + Linsitinib; first compound 0.09487 µM) | relative viability (Dinaciclib + Linsitinib; first compound 0.3 µM) | relative viability (Dinaciclib + Alpelisib; first compound 0.009487 µM) | relative viability (Dinaciclib + Alpelisib; first compound 0.03 µM) | relative viability (Dinaciclib + Alpelisib; first compound 0.09487 µM) | relative viability (Dinaciclib + Alpelisib; first compound 0.3 µM) | relative viability (Dinaciclib + Olaparib; first compound 0.009487 µM) | relative viability (Dinaciclib + Olaparib; first compound 0.03 µM) | relative viability (Dinaciclib + Olaparib; first compound 0.09487 µM) | relative viability (Dinaciclib + Olaparib; first compound 0.3 µM)
1 | Calu-6 | 0.969 | 0.145 | 0.117 | 0.131 | 0.54 | 0.128 | 0.133 | 0.123 | 0.524 | 0.0805 | 0.0782 | 0.0765 | 0.757 | 0.0769 | 0.0773 | 0.0929 | 0.914 | 0.112 | 0.13 | 0.134 | 0.523 | 0.113 | 0.116 | 0.114 | 0.619 | 0.208 | 0.0928 | 0.126 | 1.02 | 0.0954 | 0.0924 | 0.103 | 0.498 | 0.133 | 0.118 | 0.128 | 0.527 | 0.111 | 0.1 | 0.109
2 | EBC-1 | 0.875 | 0.149 | 0.108 | 0.141 | 0.452 | 0.133 | 0.152 | 0.146 | 0.307 | 0.138 | 0.136 | 0.163 | 0.0927 | 0.0992 | 0.106 | 0.106 | 0.21 | 0.16 | 0.168 | 0.157 | 0.283 | 0.117 | 0.109 | 0.142 | 0.198 | 0.159 | 0.151 | 0.136 | 0.977 | 0.228 | 0.101 | 0.127 | 0.501 | 0.138 | 0.123 | 0.141 | 0.737 | 0.132 | 0.126 | 0.106
